Results as given in PMC13266999, “Designing Antibiotics with Inherent Resistance to Efflux as a Strategy to Revive Discovery against Multidrug-Resistant Pathogens” (Journal of Medicinal Chemistry, 2026).
Values after ≈ are worked out from the molar mass of the structure shown. Like-named read-outs stand apart in the source and are kept apart here.

Legend:
Pharmacokinetics = details: male, ICR (CD-1), mouse, plasma
Protocol: Pharmacokinetic studies were performed in male ICR (CD-1) mice obtained from Charles River, UK. […] Blood samples were collected from the caudal vein into anticoagulant-treated capillaries at predetermined time points up to 8 h, with terminal cardiac puncture at 8 h. Plasma samples were stored at −80 °C until analysis. […] A compound-specific LC-MS/MS method was developed for each test article using matrix-matched calibrators following protein precipitation of samples.

S. aureus = experiment: MIC (microbroth dilution); assay type: cell-based, Staphylococcus aureus; details: for MIC: read-out: MIC
Summary of the method: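 Overnight stationary-phase cultures back-diluted and tested by broth microdilution with 2-fold compound series. MIC is lowest concentration with no visible growth, with OD600 also read. Separate runs included polymyxin B nonapeptide at 30 μg/mL final as outer-membrane permeabilizer.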

Work on `Cc1cc(C)nc(N[C@@H]2CCN(c3c(F)cc4c(=O)c(C(=O)O)cn5c4c3OC[C@@H]5C)C2)n1` [Compound 50, (S)-10-((R)-3-((4,6-Dimethylpyrimidin-2-yl)amino)pyrrolidin-1-yl)-9-fluoro-3-methyl-7-oxo-2,3-dihydro-7H-[1,4]oxazino[2,3,4-ij]quinoline-6-carboxylic acid] yielded an AUC(0-inf) (Pharmacokinetics; iv, 5 mg/kg) of 33100 ng·h/mL, a clearance (Pharmacokinetics; iv, 5 mg/kg) of 2.52 mL/min/kg and a Cmax (Pharmacokinetics; po, 20 mg/kg) of 14500 ng/mL. The Tmax (Pharmacokinetics; po, 20 mg/kg) was 30 min, the bioavailability (Pharmacokinetics; po, 20 mg/kg) was 83% and the “fold improvement in activity compared to 46” value (S. aureus) was 2–8 fold. For the same compound, the “fold difference in MIC, SA-1199B vs SA-1199” value (S. aureus; NorA-overexpressing vs WT) was “no difference”, the MIC (S. aureus; Staphylococcus aureus, 1199, + 4% albumin) was 0.06 µg/mL and the MIC (S. aureus; Staphylococcus aureus, 1199b, + 4% albumin) was 0.125 µg/mL. The MIC (S. aureus; Staphylococcus aureus, ATCC6538P, ATCC 6538P) was 0.03 µg/mL (≈ 0.0662 µM), the MIC (S. aureus; Staphylococcus aureus, ATCC9144, ATCC 9144, + 4% albumin) was 0.125 µg/mL and the MIC (S. aureus; Staphylococcus aureus, ATCC9144, ATCC 9144) was no more than 0.004 µg/mL. The MIC (S. aureus; Staphylococcus aureus, ATCC10390, ATCC 10390) was 0.03 µg/mL (≈ 0.0662 µM), the MIC (S. aureus; Staphylococcus aureus, ATCC13709, ATCC 13709) was 0.03 µg/mL (≈ 0.0662 µM) and the MIC (S. aureus; Staphylococcus aureus, ATCC19636, Smith, ATCC 19636) was 0.03 µg/mL (≈ 0.0662 µM). The MIC (S. aureus; Staphylococcus aureus, ATCC27660, ATCC 27660) was 0.03 µg/mL (≈ 0.0662 µM), the MIC (S. aureus; Staphylococcus aureus, ATCC29213, ATCC 29213 + 50% serum) was 1 µg/mL and the MIC (S. aureus; Staphylococcus aureus, ATCC29213, ATCC 29213) was 0.03 µg/mL (≈ 0.0662 µM). For the same compound, the MIC (S. aureus; Staphylococcus aureus, ATCC 33591 / MRSA, MRSA (ATCC 33591)) was 0.03 µg/mL (≈ 0.0662 µM), the MIC (S. aureus; Staphylococcus aureus, ATCC 33592 / MRSA, MRSA (ATCC 33592)) was 0.03 µg/mL (≈ 0.0662 µM) and the MIC (S. aureus; Staphylococcus aureus, ATCC33594, ATCC 33594) was 0.03 µg/mL (≈ 0.0662 µM). The MIC (S. aureus; Staphylococcus aureus, ATCC49230, ATCC 49230) was 0.03 µg/mL (≈ 0.0662 µM), the MIC (S. aureus; Staphylococcus aureus, MRSA / NRS 17 / VISA, VISA MRSA (NRS17)) was 1 µg/mL (≈ 2.21 µM) and the MIC (S. aureus; Staphylococcus aureus, MRSA / NRS 22 / USA600, USA600 MRSA GISA (NRS22)) was 4 µg/mL (≈ 8.82 µM). It also gave an MIC (S. aureus; Staphylococcus aureus, MRSA / NRS 71, MRSA (NRS71)) of 1 µg/mL (≈ 2.21 µM), an MIC (S. aureus; Staphylococcus aureus, MRSA / NRS 100, MRSA (COL; NRS100)) of 0.03 µg/mL (≈ 0.0662 µM) and an MIC (S. aureus; Staphylococcus aureus, MRSA / NRS 119, MRSA Linezolid-R (NRS119)) of 1 µg/mL (≈ 2.21 µM). The MIC (S. aureus; Staphylococcus aureus, MRSA / NRS 123 / USA400, USA400 MRSA (NRS123)) was 0.03 µg/mL (≈ 0.0662 µM), the MIC (S. aureus; Staphylococcus aureus, MRSA / NRS 127, LZD-NS MRSA (NRS127)) was 4 µg/mL (≈ 8.82 µM) and the MIC (S. aureus; Staphylococcus aureus, MRSA / NRS 269, TGC-NS MRSA (NRS269)) was 2 µg/mL (≈ 4.41 µM). For the same compound, the MIC (S. aureus; Staphylococcus aureus, MRSA / NRS 271, Linezolid-R MRSA (NRS271)) was 0.5 µg/mL (≈ 1.1 µM), the MIC (S. aureus; Staphylococcus aureus, MRSA / NRS 382 / USA100, USA100 MRSA (NRS382)) was 0.5 µg/mL (≈ 1.1 µM) and the MIC (S. aureus; Staphylococcus aureus, MRSA / NRS 383 / USA200, USA200 MRSA (NRS383)) was 1 µg/mL (≈ 2.21 µM). The MIC (S. aureus; Staphylococcus aureus, MRSA / NRS 384 / USA300, USA300 MRSA (NRS384)) was 0.03 µg/mL (≈ 0.0662 µM), the MIC (S. aureus; Staphylococcus aureus, MRSA / NRS 385 / USA500, USA500 MRSA (NRS385)) was 0.5 µg/mL (≈ 1.1 µM) and the MIC (S. aureus; Staphylococcus aureus, MRSA / NRS 386 / USA700, USA700 MRSA (NRS386)) was 0.25 µg/mL (≈ 0.551 µM). It also gave an MIC (S. aureus; Staphylococcus aureus, MRSA / NRS 387 / USA800, USA800 MRSA (NRS387)) of 0.03 µg/mL (≈ 0.0662 µM), an MIC (S. aureus; Staphylococcus aureus, MRSA / NRS 402 / VISA, VISA DAP-NS MRSA (NRS402)) of 1 µg/mL (≈ 2.21 µM) and an MIC (S. aureus; Staphylococcus aureus, MRSA / NRS 483, USA1000 MRSA (NRS483)) of 0.03 µg/mL (≈ 0.0662 µM). For the same compound, the MIC (S. aureus; Staphylococcus aureus, MRSA / NRS 484, USA1100 MRSA (NRS484)) was 0.03 µg/mL (≈ 0.0662 µM), the MIC (S. aureus; Staphylococcus aureus, MRSA / USA300, USA300 MRSA (FPR3757)) was 0.5 µg/mL (≈ 1.1 µM) and the MIC (S. aureus; Staphylococcus aureus, MRSA / USA300, USA300 MRSA (TCH1516)) was 0.03 µg/mL (≈ 0.0662 µM). The MIC (S. aureus; Staphylococcus aureus, MRSA / USA400, USA400 MRSA (MW2)) was 0.03 µg/mL (≈ 0.0662 µM).
